According to the supplement of paper PMC10307832:

What was measured:
Assay in all cases: relative viability (nuclei count vs DMSO), 5 days (fraction); higher = more cells survive
ABC-1 = tested on: ABC-1
How it was run: (§1)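 After 5 days of treatment, lung cancer cells in 1536-well plates were fixed and stained in a single step (final 0.05% Triton X-100, 1% formaldehyde, 1 ug/ml Hoechst) and their nuclei counted on 4× images. Treatment had been applied by pin tool the day after seeding as one drug alone or as a fixed anchor-drug dose with five library-drug doses (not always all listed) in √10 steps. Relative viability is the nuclei count of treated wells divided by that of vehicle wells, and values are medians of duplicate plates.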

CAL-12T = tested on: CAL-12T
How it was run: as §1

ChaGo-K-1 = tested on: ChaGo-K-1
How it was run: as §1

HCC-366 = tested on: HCC-366
How it was run: as §1

HCC-78 = tested on: HCC-78
How it was run: as §1

LC-2-ad = tested on: LC-2-ad
How it was run: as §1

LOU-NH91 = tested on: LOU-NH91
How it was run: as §1

LU99A = tested on: LU99A
How it was run: as §1

NCI-H1395 = tested on: NCI-H1395
How it was run: as §1

NCI-H1651 = tested on: NCI-H1651
How it was run: as §1

NCI-H1734 = tested on: NCI-H1734
How it was run: as §1

NCI-H1755 = tested on: NCI-H1755
How it was run: as §1

NCI-H1793 = tested on: NCI-H1793
How it was run: as §1

NCI-H1944 = tested on: NCI-H1944
How it was run: as §1

NCI-H2087 = tested on: NCI-H2087
How it was run: as §1

NCI-H2170 = tested on: NCI-H2170
How it was run: as §1

NCI-H2228 = tested on: NCI-H2228
How it was run: as §1

NCI-H2405 = tested on: NCI-H2405
How it was run: as §1

NCI-H3122 = tested on: NCI-H3122
How it was run: as §1

NCI-H460 = tested on: NCI-H460
How it was run: as §1

PC-3 [JPC-3] = tested on: PC-3 [JPC-3]
How it was run: as §1

RERF-LC-KJ = tested on: RERF-LC-KJ
How it was run: as §1

UMC-11 = tested on: UMC-11
How it was run: as §1

SMILES: C=C1C(=O)O[C@@H](CCCCCCCC)[C@@H]1C(=O)O [C-75] + CS(=O)(=O)N1CCN(Cc2cc3nc(-c4cccc5[nH]ncc45)nc(N4CCOCC4)c3s2)CC1 [Pictilisib] (partner 1 µM)
- relative viability (ABC-1; first compound 0.08 µM): 0.733
- relative viability (ABC-1; first compound 0.253 µM): 0.87
- relative viability (ABC-1; first compound 0.8 µM): 0.659
- relative viability (ABC-1; first compound 2.53 µM): 0.646
- relative viability (ABC-1; first compound 8 µM): 0.469
- relative viability (CAL-12T; first compound 0.08 µM): 0.58
- relative viability (CAL-12T; first compound 0.253 µM): 0.624
- relative viability (CAL-12T; first compound 0.8 µM): 0.306
- relative viability (CAL-12T; first compound 2.53 µM): 0.292
- relative viability (CAL-12T; first compound 8 µM): 0.486
- relative viability (ChaGo-K-1; first compound 0.08 µM): 0.431
- relative viability (ChaGo-K-1; first compound 0.253 µM): 0.749
- relative viability (ChaGo-K-1; first compound 0.8 µM): 0.594
- relative viability (ChaGo-K-1; first compound 2.53 µM): 0.507
- relative viability (ChaGo-K-1; first compound 8 µM): 0.771
- relative viability (HCC-366; first compound 0.08 µM): 0.238
- relative viability (HCC-366; first compound 0.253 µM): 0.165
- relative viability (HCC-366; first compound 0.8 µM): 0.152
- relative viability (HCC-366; first compound 2.53 µM): 0.264
- relative viability (HCC-366; first compound 8 µM): 0.148
- relative viability (HCC-78; first compound 0.08 µM): 0.216
- relative viability (HCC-78; first compound 0.253 µM): 0.217
- relative viability (HCC-78; first compound 0.8 µM): 0.206
- relative viability (HCC-78; first compound 2.53 µM): 0.198
- relative viability (HCC-78; first compound 8 µM): 0.22
- relative viability (LC-2-ad; first compound 0.08 µM): 0.556
- relative viability (LC-2-ad; first compound 0.253 µM): 0.528
- relative viability (LC-2-ad; first compound 0.8 µM): 0.457
- relative viability (LC-2-ad; first compound 8 µM): 0.442
- relative viability (LOU-NH91; first compound 0.08 µM): 0.555
- relative viability (LOU-NH91; first compound 0.253 µM): 0.602
- relative viability (LOU-NH91; first compound 0.8 µM): 0.446
- relative viability (LOU-NH91; first compound 2.53 µM): 0.406
- relative viability (LOU-NH91; first compound 8 µM): 0.461
- relative viability (LU99A; first compound 0.08 µM): 0.281
- relative viability (LU99A; first compound 0.253 µM): 0.306
- relative viability (LU99A; first compound 0.8 µM): 0.305
- relative viability (LU99A; first compound 2.53 µM): 0.286
- relative viability (LU99A; first compound 8 µM): 0.307
- relative viability (NCI-H1395; first compound 0.08 µM): 0.599
- relative viability (NCI-H1395; first compound 0.253 µM): 0.572
- relative viability (NCI-H1395; first compound 0.8 µM): 0.539
- relative viability (NCI-H1395; first compound 2.53 µM): 0.474
- relative viability (NCI-H1395; first compound 8 µM): 0.7
- relative viability (NCI-H1651; first compound 0.08 µM): 0.466
- relative viability (NCI-H1651; first compound 0.253 µM): 0.633
- relative viability (NCI-H1651; first compound 0.8 µM): 0.499
- relative viability (NCI-H1651; first compound 2.53 µM): 1.04
- relative viability (NCI-H1651; first compound 8 µM): 0.501
- relative viability (NCI-H1734; first compound 0.08 µM): 0.435
- relative viability (NCI-H1734; first compound 0.253 µM): 0.428
- relative viability (NCI-H1734; first compound 0.8 µM): 0.448
- relative viability (NCI-H1734; first compound 2.53 µM): 0.384
- relative viability (NCI-H1734; first compound 8 µM): 0.367
- relative viability (NCI-H1755; first compound 0.08 µM): 0.461
- relative viability (NCI-H1755; first compound 0.253 µM): 0.448
- relative viability (NCI-H1755; first compound 0.8 µM): 0.389
- relative viability (NCI-H1755; first compound 2.53 µM): 0.339
- relative viability (NCI-H1755; first compound 8 µM): 0.402
- relative viability (NCI-H1793; first compound 0.08 µM): 0.339
- relative viability (NCI-H1793; first compound 0.253 µM): 0.359
- relative viability (NCI-H1793; first compound 0.8 µM): 0.324
- relative viability (NCI-H1793; first compound 2.53 µM): 0.215
- relative viability (NCI-H1793; first compound 8 µM): 0.372
- relative viability (NCI-H1944; first compound 0.08 µM): 0.346
- relative viability (NCI-H1944; first compound 0.253 µM): 0.34
- relative viability (NCI-H1944; first compound 0.8 µM): 0.33
- relative viability (NCI-H1944; first compound 8 µM): 0.342
- relative viability (NCI-H2087; first compound 0.08 µM): 0.853
- relative viability (NCI-H2087; first compound 0.253 µM): 0.844
- relative viability (NCI-H2087; first compound 0.8 µM): 0.733
- relative viability (NCI-H2087; first compound 2.53 µM): 0.428
- relative viability (NCI-H2087; first compound 8 µM): 0.859
- relative viability (NCI-H2170; first compound 0.08 µM): 0.355
- relative viability (NCI-H2170; first compound 0.253 µM): 0.299
- relative viability (NCI-H2170; first compound 0.8 µM): 0.318
- relative viability (NCI-H2170; first compound 2.53 µM): 0.274
- relative viability (NCI-H2170; first compound 8 µM): 0.272
- relative viability (NCI-H2228; first compound 0.08 µM): 0.429
- relative viability (NCI-H2228; first compound 0.253 µM): 0.689
- relative viability (NCI-H2228; first compound 0.8 µM): 0.221
- relative viability (NCI-H2228; first compound 2.53 µM): 0.202
- relative viability (NCI-H2228; first compound 8 µM): 0.324
- relative viability (NCI-H2405; first compound 0.08 µM): 0.471
- relative viability (NCI-H2405; first compound 0.253 µM): 0.307
- relative viability (NCI-H2405; first compound 0.8 µM): 0.37
- relative viability (NCI-H2405; first compound 2.53 µM): 0.408
- relative viability (NCI-H2405; first compound 8 µM): 0.391
- relative viability (NCI-H3122; first compound 0.08 µM): 0.635
- relative viability (NCI-H3122; first compound 0.253 µM): 0.753
- relative viability (NCI-H3122; first compound 0.8 µM): 0.545
- relative viability (NCI-H3122; first compound 8 µM): 0.555
- relative viability (NCI-H460; first compound 0.08 µM): 0.396
- relative viability (NCI-H460; first compound 0.253 µM): 0.472
- relative viability (NCI-H460; first compound 0.8 µM): 0.303
- relative viability (NCI-H460; first compound 8 µM): 0.348
- relative viability (PC-3 [JPC-3]; first compound 0.08 µM): 0.817
- relative viability (PC-3 [JPC-3]; first compound 0.253 µM): 0.637
- relative viability (PC-3 [JPC-3]; first compound 0.8 µM): 0.674
- relative viability (PC-3 [JPC-3]; first compound 2.53 µM): 0.822
- relative viability (PC-3 [JPC-3]; first compound 8 µM): 0.876
- relative viability (RERF-LC-KJ; first compound 0.08 µM): 0.564
- relative viability (RERF-LC-KJ; first compound 0.253 µM): 0.528
- relative viability (RERF-LC-KJ; first compound 0.8 µM): 0.625
- relative viability (RERF-LC-KJ; first compound 2.53 µM): 0.537
- relative viability (RERF-LC-KJ; first compound 8 µM): 0.533
- relative viability (UMC-11; first compound 0.08 µM): 0.74
- relative viability (UMC-11; first compound 0.253 µM): 0.899
- relative viability (UMC-11; first compound 0.8 µM): 0.704
- relative viability (UMC-11; first compound 2.53 µM): 0.702
- relative viability (UMC-11; first compound 8 µM): 0.75
